Read-outs that look alike come from different tables or passages of the source.

Series [1] deals with monoarthritic rat model of chronic pain induced by complete Freund's adjuvant (CFA). Kind of series: Antiallodynic effect (von Frey mechanical allodynia) in the monoarthritic rat model of chronic pain induced by CFA. The following applies: for ED50: Rattus norvegicus, po, read-out: ED50 (compound alone); for ED50 (as restated in the formulation example): compound alone, quoted in the 20 mg formulation example; for Interaction with GBP on the antiallodynic effect (ED50mix compared with ED50add or ED50 alone): oral co-administration with GBP at fixed ratios. Format: in vivo. As to the method:
This procedure involves the determination of the total amount in the mixture that is required to produce a specified synergistic antiallodynic effect at the 50% dose level (ED50mix) and the corresponding total amount that would be expected under simple additivity (ED50add). Where it is established that ED50mix<ED50add for a specific fixed ratio, then the composition has a synergistic antiallodynic effect. Both the quantities ED50mix and ED50add are random variables. ED50mix was determined from the dose-response curve for a specific fixed ratio of the components; ED50add was calculated from the ED50 values for the individual drugs.
Procedure for Testing the Antiallodynic Effect of the Composition of the Invention
Adult male. Wistar rats (body weight 175-200 g, Harlan-Nossan, Italy) were housed in separate cages with free access to water and standard rat chow at a constant temperature (22±0.5° C.) and relative humidity (60-70%), with a 6.00 am to 6.00 pm light-dark period.
The inflammation was induced in rats by an intra-plantar injection of complete Freund's adjuvant (CFA, Sigma-100 μl) into left hind paw containing heat-killed and dried Mycobacterium tuberculosis in a mixture of paraffin oil and mannide monooleate as emulsifying agent. A group of control animal were injected with 100 μl of mineral oil, the incomplete Freund's adjuvant (IFA, Sigma).
Each animal was allowed to develop the arthritis over an 8-9 day period of before testing.
Rats were placed in individual plastic boxes on a mesh metal floor and allowed to acclimatize for about 30 min. A series of calibrated von Frey hair with logarithmically incremental stiffness (from 2.83 to 5.88×Log10 of the bending force, g) were applied to the paw with the up-down method. Each hair was presented perpendicularly against the paw, with sufficient force to cause slight bending, and held approximately 2-3 sec. The filament was recorded when a positive response was noted (paw withdrawn, licking or shaking).
The antiallodynic effect was expressed as % MPE (Maximal Possible Effect) at 2 h post-dosing.
The rats were all dosed orally with various doses of an α-aminoamide alone, GBP alone, combined doses of an α-aminoamide and GBP or vehicle. The dosing volume was 2 ml/kg. The dosing materials were all prepared in the vehicle, (distilled water); drug weights were calculated as the free base.
Data are presented as mean of 4/6 animals per group/dose.
The ED50 was defined as the dose producing 50% reversal of mechanical hyperalgesia at 2 h after treatment. An experimental ED50 and 95% confidence intervals (CI) were calculated for each compound alone from the linear regressions fitting the experimental data according to the equation y=a+bx.
The different α-aminoamides were then combined with GBP at different ratios in relation to their respective ED50 previously calculated (not limiting examples of the ratios are 1:1; 1:3; 1:9 and respectively 1:1, 3:1 and 9:1 ratios) for the evaluation of the synergic effect.
Multiple (typically 4) doses of each selected ratio were then studied orally for evaluating the synergic effect of the combination.
Each rat received only one treatment.

Series [2] is described as follows: Rat Rotarod test (motor impairment and ataxia). The following applies: in vivo, po, p.o. at 2 hours, dose causing 50% of the animals to fall from the roller, read-out: TD50 (compound alone). As to the method:
The Rotarod test is an established method used as predictive of CNS-related side effects in humans, and in particular motor impairment and ataxia.
The different α-aminoamides were then combined with GBP at different ratios in relation to their respective TD50 previously calculated (a non limiting example of the ratios is the 1:1 ratio) for the evaluation of the possible synergic effect. Data are presented as mean of 8/10 animals per group/dose.
The test was performed 120 min after drug administration.
(In general: Falling from the rotarod earlier than controls is read as motor impairment.)

Setting [3] is: 2 h after single administration, dose producing 50% reversal of mechanical hyperalgesia, CFA rats.

Broadly, the ED50 is the dose at which the effect has come halfway, by size or by number of responders. Turning to `NC(=O)NN=Cc1ccc(Oc2ccc(F)cc2)cc1` [4-(4′-fluoro-phenoxy)benzaldehyde semicarbazone, reference compound], in series [1] (setting [3]), the 50% effective dose (ED50) was 14.5 mg/kg.
For orientation: TD50 means the 50% point of the dose-response relation for the toxic effect studied. As for `NCC1(CC(=O)O)CCCCC1` [GBP, 1-(aminomethyl)cyclohexaneacetic acid, reference compound], the TD50 at 120 min in series [2] stood at 430 mg/kg. Moreover, the 50% effective dose (ED50) in series [1] (2 h) turned out to be 12.4 mg/kg. Further, the “ED50 (as restated in the formulation example)” value in series [1] stood at 12.40 mg.
Regarding `C[C@H](NCc1ccc(OCc2ccccc2F)cc1)C(N)=O` [NW-1029, (S)-(+)-2-[4-(2-fluorobenzyloxy)benzylamino]propanamide], the TD50 at 120 min in series [2] worked out at 470 mg/kg. Further, in series [1] (setting [3]), the median effective dose (ED50) was found to be 0.82 mg/kg. In addition, in series [1], the “ED50 (as restated in the formulation example)” value is listed as 0.82 mg and the “Interaction with GBP on the antiallodynic effect (ED50mix compared with ED50add or ED50 alone)” value is “synergic to GBP”.
Take `CNC(=O)[C@@H](Cc1ccccc1)NCc1ccc(OCc2ccccc2)cc1` [NW-1037, (R)-(−)-2-[4-benzyloxybenzylamino]-3-phenyl-N-methylpropanamide]: the median effective dose (ED50) in series [1] (setting [3]) turned out to be 3.45 mg/kg. Besides, in series [1], the “Interaction with GBP on the antiallodynic effect (ED50mix compared with ED50add or ED50 alone)” value is on record as “synergic to GBP”.
For the compound `CNC(=O)[C@H](C)NCc1ccc(OCc2cccc(F)c2)cc1` [NW-1043, (S)-(+)-2-[4-(3-fluorobenzyloxy)-benzylamino]-N-methyl-propanamide], the 50% effective dose (ED50) in series [1] (setting [3]) came out at 7.05 mg/kg. For the same compound, in series [1], the “Interaction with GBP on the antiallodynic effect (ED50mix compared with ED50add or ED50 alone)” value was “synergic to GBP”.

The values are drawn from US8710040B2, “Pharmaceutical composition comprising gabapentin or an analogue thereof and an α-aminoamide and its analgesic use” (Newron Pharmaceuticals S.p.A., priority 2001, dated 2014).
